Source: the supplement of paper PMC10307832

Experiments:
Assay in all cases: relative viability (nuclei count vs DMSO), 5 days (fraction); higher = more cells survive
[1] = compound: C1=CC(=CC=C1NC(=S)NNC2=C(C=C(C=C2[N+](=O)[O-])C(F)(F)F)[N+](=O)[O-])F [Kobe2602] + Cc1cc(Nc2cc(N3CCN(C)CC3)nc(Sc3ccc(NC(=O)C4CC4)cc3)n2)n[nH]1 [Tozasertib] (partner 0.1 µM)
In short: (§1)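 Relative viability was taken as the ratio of nuclei in treated wells to nuclei in vehicle wells. Lung cancer cell lines in 1536-well plates received compounds by pin tool one day after seeding, either one drug alone or a fixed anchor-drug dose plus five library-drug doses (not always all listed) in √10 steps. Nuclei were counted on 4× images after 5 days of treatment, and values are medians of duplicate plates.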

[2] = compound: C1=CC(=CC=C1NC(=S)NNC2=C(C=C(C=C2[N+](=O)[O-])C(F)(F)F)[N+](=O)[O-])F [Kobe2602] + O=C(c1cc(Cc2n[nH]c(=O)c3ccccc23)ccc1F)N1CCN(C(=O)C2CC2)CC1 [Olaparib] (partner 8 µM)
In short: as §1

[3] = compound: COc1cc2nccc(Oc3ccc(NC(=O)C4(C(=O)Nc5ccc(F)cc5)CC4)cc3)c2cc1OC [Cabozantinib] + C[C@]1(O)C[C@@H](c2nc(-c3ccc4ccc(-c5ccccc5)nc4c3)c3c(N)nccn32)C1 [Linsitinib] (partner 1 µM)
In short: as §1

[4] = compound: COc1cc2nccc(Oc3ccc(NC(=O)C4(C(=O)Nc5ccc(F)cc5)CC4)cc3)c2cc1OC [Cabozantinib] + N=C(N)NC(=N)NCCc1ccccc1 [Phenformin] (partner 250 µM)
In short: as §1

Cell Line | relative viability ([1]; first compound 0.2 µM) | relative viability ([1]; first compound 0.6325 µM) | relative viability ([1]; first compound 2 µM) | relative viability ([1]; first compound 6.325 µM) | relative viability ([1]; first compound 20 µM) | relative viability ([2]; first compound 0.2 µM) | relative viability ([2]; first compound 0.6325 µM) | relative viability ([2]; first compound 2 µM) | relative viability ([2]; first compound 6.325 µM) | relative viability ([2]; first compound 20 µM) | relative viability ([3]; first compound 0.02 µM) | relative viability ([3]; first compound 0.06325 µM) | relative viability ([3]; first compound 0.2 µM) | relative viability ([3]; first compound 0.6325 µM) | relative viability ([3]; first compound 2 µM) | relative viability ([4]; first compound 0.02 µM) | relative viability ([4]; first compound 0.06325 µM) | relative viability ([4]; first compound 0.2 µM) | relative viability ([4]; first compound 0.6325 µM) | relative viability ([4]; first compound 2 µM)
NCI-H1915 | 0.422 | 0.43 | 0.393 | 0.438 | 0.399 | 0.275 | 0.251 | 0.246 | 0.269 | 0.307 | 1.1 | 1.12 | 1.09 | 1.01 | 1.12 | 0.364 | 0.389 | 0.374 | 0.373 | 0.362
NCI-H661 | 0.382 | 0.34 | 0.376 | 0.376 | 0.355 | 0.714 | 0.695 | 0.697 | 0.754 | 0.802 | 0.621 | 0.503 | 0.557 | 0.455 | 0.413 | 0.273 | 0.252 | 0.283 | 0.335 | 0.286
NCI-H647 | 0.213 | 0.315 | 0.181 | 0.192 | 0.347 | 0.511 | 0.39 | 0.55 | 0.606 | 0.618 | 1.28 | 1.53 | 1.33 | 1.12 | 1.11 | 0.488 | 0.596 | 0.541 | 0.49 | 0.322
HCC-366 | 0.0819 | 0.0969 | 0.0807 | 0.0437 | 0.0481 | 0.368 | 0.345 | 0.32 | 0.352 | 0.365 | 0.772 | 0.649 | 0.703 | 0.637 | 0.554 | 0.675 | 0.612 | 0.653 | 0.623 | 0.581
NCI-H2087 | 0.282 | 0.247 | 0.251 | 0.243 | 0.246 | 0.564 | 0.696 | 0.705 | 0.639 | 0.637 | 1.03 | 1 | 1.06 | 1.02 | 1 | 0.422 | 0.455 | 0.471 | 0.429 | 0.456
SK-LU-1 | 0.31 | 0.371 | 0.333 | 0.372 | 0.357 | 0.463 | 0.471 | 0.494 | 0.457 | 0.523 | – | 1.34 | 1.08 | 1.34 | 0.823 | 0.587 | 0.791 | 0.552 | 0.476 | 0.438
HOP-62 | 0.399 | 0.359 | 0.418 | 0.341 | 0.335 | 0.512 | 0.523 | 0.476 | 0.316 | 0.472 | 1.09 | 0.974 | 1.1 | 1.01 | 1.02 | 0.706 | 0.777 | 0.741 | 0.693 | 0.697
NCI-H2126 | 0.856 | 0.821 | 0.812 | 0.733 | 0.591 | 0.868 | 0.892 | 0.905 | 0.929 | 0.926 | 0.727 | 0.755 | 0.735 | 0.733 | 0.701 | 0.443 | 0.555 | 0.539 | 0.544 | 0.586
